Laboratory results from ChEMBL document CHEMBL1201862, “PubChem BioAssay data set” (2004).
Calls of active or inactive are those of the source.

Key:
[1] = growth suppression of beta-catenin-knockout colon cells, dose response, cell-based, HCT116, human colon tumor (AID 1045); format: functional;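 note: HCT116 colon tumor cells with beta catenin knocked out; cells exposed to compound for 60 hours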
[2] = growth suppression of PTEN-null colon cells, dose response, cell-based, HCT116 PTEN knockout (AID 1047); format: functional;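 note: HCT116 colon tumor cells with PTEN knocked out; cells exposed to compound for 60 hours before readout; potency for loss of cell viability measured by luminescence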
[3] = tested on: Streptococcus sp. 'group A'; test: growth inhibition of control SK(-) GAS strain, dose response, counter-screen for streptokinase expression inhibitor project, luminescence, kanamycin, BacTiterGlo, confirmation (AID 1900); format: functional, organism-based
[4] = biological target: T1, Streptokinase A (Streptococcus pyogenes serotype M1, UniProt P10520); test: S. pyogenes streptokinase expression inhibitors, potency, dose response, plasminogen activation absorbance, OD405 (AID 1914); format: functional, Streptococcus pyogenes M1 GAS;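 note: secreted streptokinase activity via plasminogen activation per viability signal from cell pellet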
T1 sequence (P10520 whole entry): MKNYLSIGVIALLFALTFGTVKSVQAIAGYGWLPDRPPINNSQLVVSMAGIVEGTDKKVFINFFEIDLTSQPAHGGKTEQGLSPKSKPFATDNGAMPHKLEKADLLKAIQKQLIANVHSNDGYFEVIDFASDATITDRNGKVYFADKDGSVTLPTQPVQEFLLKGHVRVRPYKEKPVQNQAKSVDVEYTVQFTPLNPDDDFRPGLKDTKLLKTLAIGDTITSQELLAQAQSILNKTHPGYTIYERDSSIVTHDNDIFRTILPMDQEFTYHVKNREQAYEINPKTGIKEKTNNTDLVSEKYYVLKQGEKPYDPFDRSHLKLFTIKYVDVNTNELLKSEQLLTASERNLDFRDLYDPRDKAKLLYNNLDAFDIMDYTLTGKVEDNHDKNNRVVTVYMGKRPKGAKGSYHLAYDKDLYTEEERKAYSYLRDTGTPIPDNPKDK

[5] = tested on: Streptococcus; test: Group A Streptococcus viability loss, dose response, counter-screen for streptokinase expression inhibitor project, luminescence, BacTiterGlo (AID 1915); format: functional, organism-based;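 note: potency for reduction of bacterial viability or growth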
[6] = biological target: T2, Rac GTPase-activating protein 1 (Homo sapiens, UniProt Q9H0H5); test: MgcRacGAP GTPase-activating activity inhibitors, confirmation, biochemical, ADP Hunter fluorescence, primary and confirmatory (AID 624330); format: functional
T2 sequence (Q9H0H5 whole entry): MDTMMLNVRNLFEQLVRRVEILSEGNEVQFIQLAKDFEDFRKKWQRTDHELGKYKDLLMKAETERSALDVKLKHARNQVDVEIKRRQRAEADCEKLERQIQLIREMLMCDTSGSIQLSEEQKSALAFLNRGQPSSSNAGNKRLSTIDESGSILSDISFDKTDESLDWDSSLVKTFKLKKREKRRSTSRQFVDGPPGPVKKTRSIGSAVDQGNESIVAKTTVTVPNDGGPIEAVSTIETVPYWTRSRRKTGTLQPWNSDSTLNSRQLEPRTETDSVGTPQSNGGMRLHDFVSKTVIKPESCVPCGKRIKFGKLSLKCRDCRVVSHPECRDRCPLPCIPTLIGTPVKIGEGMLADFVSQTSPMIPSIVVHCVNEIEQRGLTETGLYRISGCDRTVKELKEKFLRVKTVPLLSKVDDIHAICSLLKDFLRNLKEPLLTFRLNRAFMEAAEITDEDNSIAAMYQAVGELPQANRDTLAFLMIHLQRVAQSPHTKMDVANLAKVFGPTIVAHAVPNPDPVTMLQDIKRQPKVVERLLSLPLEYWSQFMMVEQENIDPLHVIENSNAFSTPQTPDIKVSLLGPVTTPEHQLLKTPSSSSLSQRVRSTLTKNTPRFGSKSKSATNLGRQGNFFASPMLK

[7] = biological target: T3, Heat shock factor protein 1 (Mus musculus, UniProt P38532); test: inhibition of MG132-induced HSE-luciferase signal, confirmation, cell-based, NIH3T3, luminescence, dose retest (AID 2382); format: functional;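 note: NIH3T3 fibroblasts with HSF1-driven luciferase reporter stressed by proteasome inhibitor MG132; luminescence from HSF1-driven luciferase expression after 8 hours of MG132 stress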
T3 sequence (P38532 whole entry): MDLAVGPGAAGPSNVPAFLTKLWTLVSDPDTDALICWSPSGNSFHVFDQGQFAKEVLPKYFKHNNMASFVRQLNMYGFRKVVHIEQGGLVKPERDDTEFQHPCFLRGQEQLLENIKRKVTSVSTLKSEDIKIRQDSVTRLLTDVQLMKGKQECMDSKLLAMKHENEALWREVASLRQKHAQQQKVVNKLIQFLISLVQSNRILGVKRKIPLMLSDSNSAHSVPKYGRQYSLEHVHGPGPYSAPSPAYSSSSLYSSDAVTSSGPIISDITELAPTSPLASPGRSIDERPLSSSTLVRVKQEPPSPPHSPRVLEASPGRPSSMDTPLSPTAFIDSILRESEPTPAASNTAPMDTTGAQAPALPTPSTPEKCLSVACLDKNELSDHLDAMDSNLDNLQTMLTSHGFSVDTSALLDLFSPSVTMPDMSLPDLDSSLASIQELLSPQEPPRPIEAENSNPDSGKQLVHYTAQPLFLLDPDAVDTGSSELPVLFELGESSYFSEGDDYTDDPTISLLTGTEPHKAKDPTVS

[8] = Shn3 3'UTR reporter inhibitors, dose response, cell-based, Clone20 osteoblasts, firefly luciferase, cherry-picked (AID 624132); format: functional;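 note: firefly luciferase luminescence from reporter carrying the Shn3 3'UTR in osteoblasts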
[9] = HepG2 cell cytotoxicity, dose response, cytotoxicity control for Shn3 inhibitor project, CellTiter-Glo, cherry-picked (AID 624134); format: functional, cell-based
[10] = control 3'UTR Renilla luciferase suppression, dose response, counter-screen for Shn3 inhibitor project, cell-based, Clone20-Shn3RL, cherry-picked (AID 624133); format: functional
[11] = biological target: T4, Zinc finger protein mex-5 (Caenorhabditis elegans, UniProt Q9XUB2); test: MEX-5/TCR-2 RNA interaction inhibitors, dose response, biochemical, C. elegans, fluorescence polarization (AID 1960)
T4 sequence (Q9XUB2 whole entry): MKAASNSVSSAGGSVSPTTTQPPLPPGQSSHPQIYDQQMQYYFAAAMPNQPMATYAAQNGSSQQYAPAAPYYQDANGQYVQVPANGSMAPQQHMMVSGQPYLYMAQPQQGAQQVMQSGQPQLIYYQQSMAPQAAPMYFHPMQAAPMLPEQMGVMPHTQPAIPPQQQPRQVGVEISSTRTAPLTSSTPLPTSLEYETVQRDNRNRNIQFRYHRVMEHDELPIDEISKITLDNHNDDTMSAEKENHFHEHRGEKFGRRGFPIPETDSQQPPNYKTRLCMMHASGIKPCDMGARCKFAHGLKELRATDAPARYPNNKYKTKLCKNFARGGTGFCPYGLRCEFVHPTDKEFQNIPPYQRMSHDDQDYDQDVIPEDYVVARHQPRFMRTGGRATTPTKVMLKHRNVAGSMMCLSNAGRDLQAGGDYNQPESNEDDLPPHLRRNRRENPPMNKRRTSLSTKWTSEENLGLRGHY

[12] = biological target: T5, RNA-binding protein pos-1 (Caenorhabditis elegans, UniProt G5EF15); test: inhibitors of POS-1/mex-3 RNA binding, dose response, biochemical, fluorescence polarization (AID 1964);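 note: purified POS-1 fused to maltose binding protein made in E. coli; potency of compounds blocking POS-1 binding to fluorescent RNA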
T5 sequence (G5EF15 whole entry): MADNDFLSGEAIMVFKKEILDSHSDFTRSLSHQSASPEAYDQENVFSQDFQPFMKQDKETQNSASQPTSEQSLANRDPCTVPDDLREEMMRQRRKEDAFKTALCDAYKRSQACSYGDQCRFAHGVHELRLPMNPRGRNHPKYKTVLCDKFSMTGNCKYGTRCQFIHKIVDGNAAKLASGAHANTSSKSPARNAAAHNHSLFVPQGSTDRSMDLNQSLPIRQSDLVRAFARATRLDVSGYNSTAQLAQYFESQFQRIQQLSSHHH

[13] = tested on: H9c2; test: cells; format: functional, cell-based; settings: Rattus norvegicus, H9c2, Myocardium;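 note: confirmatory concentration-response retest of ultra-high-throughput screening hits for modulation of myocardial damage; cell death induced by hydrogen peroxide oxidative stress; compound pretreatment for 60 min then peroxide exposure for 2 h; potency is for protecting the cells against peroxide damage rather than for killing them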
[14] = biological target: Cytochrome P450 3A4 (Homo sapiens, UniProt P08684);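 note: CYP3A4 tested as one member of a cytochrome P450 panel screen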
[15] = C. albicans growth with fluconazole, confirmation, fluorescence, retest (AID 2467); format: functional, cell-based
[16] = NIH-3T3 fibroblast cytotoxicity, dose response, cytotoxicity control, cell-based, fluorescence, Alamar Blue, secondary assay (AID 2327); format: functional;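 note: NIH-3T3 mouse fibroblasts cultured with fluconazole at 8 µg/mL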
[17] = biological target: Cytochrome P450 2C19 (Homo sapiens, UniProt P33261); test: Cytochrome panel assay with activity outcomes. Panel member name: p450-cyp2c19 Compounds with AC50 equal or less than 10 uM are considered active; format: functional; settings: read-out: AC50
Sequence of Cytochrome P450 2C19 (P33261 whole entry): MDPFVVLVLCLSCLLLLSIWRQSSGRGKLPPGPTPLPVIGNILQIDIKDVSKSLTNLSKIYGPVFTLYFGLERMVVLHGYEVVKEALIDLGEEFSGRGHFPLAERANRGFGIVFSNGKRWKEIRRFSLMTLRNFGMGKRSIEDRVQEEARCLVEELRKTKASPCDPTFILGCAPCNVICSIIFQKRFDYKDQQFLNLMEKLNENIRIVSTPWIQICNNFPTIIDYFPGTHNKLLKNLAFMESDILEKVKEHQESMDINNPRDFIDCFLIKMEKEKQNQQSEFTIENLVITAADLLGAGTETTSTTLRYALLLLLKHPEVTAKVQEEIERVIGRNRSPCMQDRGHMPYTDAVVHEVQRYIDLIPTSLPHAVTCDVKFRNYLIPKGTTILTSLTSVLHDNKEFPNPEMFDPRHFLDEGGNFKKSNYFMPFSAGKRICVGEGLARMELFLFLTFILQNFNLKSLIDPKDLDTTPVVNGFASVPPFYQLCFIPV

Sequence of Cytochrome P450 3A4 (P08684 whole entry): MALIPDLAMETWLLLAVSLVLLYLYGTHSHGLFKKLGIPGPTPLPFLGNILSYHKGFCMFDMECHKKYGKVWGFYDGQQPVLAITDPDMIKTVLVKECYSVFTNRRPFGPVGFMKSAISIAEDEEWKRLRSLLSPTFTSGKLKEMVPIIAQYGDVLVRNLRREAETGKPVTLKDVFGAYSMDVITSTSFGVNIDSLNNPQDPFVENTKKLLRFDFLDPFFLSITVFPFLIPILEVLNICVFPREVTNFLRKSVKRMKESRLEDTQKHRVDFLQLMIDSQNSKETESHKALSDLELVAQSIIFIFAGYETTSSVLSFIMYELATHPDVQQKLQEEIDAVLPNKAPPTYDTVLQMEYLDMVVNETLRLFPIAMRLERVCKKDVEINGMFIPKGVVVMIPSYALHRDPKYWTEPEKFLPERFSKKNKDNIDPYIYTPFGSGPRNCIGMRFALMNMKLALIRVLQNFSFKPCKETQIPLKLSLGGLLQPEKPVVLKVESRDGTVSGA

In the case of `CC1CN(c2nc(-c3ccc(Br)cc3)nnc2-c2ccccc2)CC(C)N1` (configuration not stated), the EC50 [1] is reported as 10 µM (active) and the EC50 [2] is reported as 11.3 µM (active).

For `CC(C)CCOc1ccc(-c2c(=O)n(OCc3ccc([N+](=O)[O-])cc3)c3ccccc3[n+]2[O-])cc1`, the EC50 [1] was 28.3 µM (active) and the EC50 [2] was 20.7 µM (active).

For `COc1ccc(-n2c(O)cc(=O)nc2SCC(=O)Nc2ccccc2)cc1`, the EC50 [3] was 67.3 µM (active), the EC50 [4] was > 150 µM (not active) and the EC50 [5] was > 150 µM (not active).

With `c1ccc(CNc2ccc(N3CCOCC3)cc2)cc1` the IC50 [6] was 8.18 µM (active).

With `O=C(O)CSc1ccccc1C(=O)O` the EC50 [7] was > 195 µM (not active).

For `Cc1nc2c(ncn2-c2ccccc2)c(=O)n1NC(=O)CN1CCOCC1`, the EC50 [7] was > 195 µM (not active).

With `Cc1ccc(CN2CCN(CC3CC4C=CC3C4)CC2)cc1` (configuration not stated) the IC50 [6] was 113 µM (active).

In the case of `Cc1cc2cc(CN(CC3CCCO3)C(S)=Nc3ccccc3)c(O)nc2cc1C` (configuration not stated), the EC50 [1] is reported as 5.3 µM (active), the AC50 [8] is reported as 2.91 µM (active) and the AC50 [9] is reported as 48.9 µM (active). For the same compound, the EC50 [2] was 4.38 µM (active) and the AC50 [10] was 9.59 µM (active).

For `Cc1sc(-c2ccccn2)nc1OC(=O)c1cccc(Cl)c1Cl`, the EC50 [11] was > 300 µM (not active) and the EC50 [12] was > 300 µM (not active).

In the case of `Cc1cc(Cl)ccc1OC(C)C(=O)NC(C)C1CCCO1` (configuration not stated), the EC50 [7] is reported as > 195 µM (not active).

For `CCOC(=O)c1c(NC(=O)CCS(=O)(=O)c2ccccc2)sc2c1CCN(C)C2`, the EC50 [3] was > 150 µM (not active), the EC50 [4] was > 150 µM (not active) and the EC50 [5] was > 150 µM (not active).

For `CCCOc1ccc(C(=O)C2=C(O)C(=O)N(CCN(C)C)C2c2ccc(O)c(OC)c2)cc1` (configuration not stated), the EC50 [7] was > 195 µM (not active).

In the case of `O=C(Nc1ccnn1C1CCN(CC2CC=CCC2)CC1)c1ccccc1` (configuration not stated), the EC50 [11] is reported as 52.3 µM (active) and the EC50 [12] is reported as 43.2 µM (active).

With `O=C(COC(=O)CCc1nc(O)c2ccccc2n1)Nc1c(Cl)cccc1C(F)(F)F` the EC50 [7] was > 195 µM (not active) and the IC50 [13] was > 79 µM (inactive).

With `CCOc1ccccc1NC(=O)C(NCCN(C)C)c1ccccc1` (configuration not stated) the IC50 [6] was 91.1 µM (active).

In the case of `COCCN1CCC(CNCc2c(C(=O)N3CCCCC3)nc3c(C)cccn23)C1` (configuration not stated), the EC50 [11] is reported as > 300 µM (not active) and the EC50 [12] is reported as > 300 µM (not active).

In the case of `O=C(COC(=O)C1CCCC1)Nc1ncc(Cl)cc1Cl`, the EC50 [11] is reported as 34.3 µM (active) and the EC50 [12] is reported as > 300 µM (not active).

With `Cc1cc(N2CCC(C)CC2)n2ncc(-c3ccccc3)c2n1` the EC50 [7] was < 0.16 µM (active).

In the case of `COc1cccc(-n2c(N)c(-c3nc4ccccc4[nH]3)sc2=S)c1`, the EC50 [7] is reported as > 195 µM (not active).

In the case of `COc1ccccc1/C=C/CN1CCC(Oc2cc(C(=O)NC3CC3)ccc2OC)CC1`, the EC50 [7] is reported as > 195 µM (not active).

In the case of `COc1cc(NC(=O)c2cc3nc(-c4ccccc4)cc(-c4ccccc4)n3n2)cc(OC)c1OC`, the EC50 [3] is reported as 11.7 µM (active), the EC50 [4] is reported as > 150 µM (not active) and the IC50 [13] is reported as 8.62 µM (active). The EC50 [5] was > 150 µM (not active) and the AC50 [14] was 10 µM (inconclusive).

With `CCOC(=O)c1cnc(-n2cc(C)cn2)nc1Nc1ccccc1OCC` the EC50 [3] was 4.47 µM (active), the EC50 [15] was > 38 µM (not active) and the EC50 [4] was > 150 µM (not active). The EC50 [16] was 44.2 µM (active) and the EC50 [5] was 6.46 µM (active).

For `Cc1ccc(C)c(C(=O)COc2ccccc2[N+](=O)[O-])c1`, the EC50 [1] was 9.49 µM (active) and the EC50 [2] was 10.2 µM (active).

For `CC(=O)/C=C/c1ccc2ccccc2n1`, the EC50 [1] was 2.42 µM (active), the EC50 [2] was 2.58 µM (active) and the AC50 [17] was 39.8 µM (inconclusive).

With `CCOC(=O)c1ccc(NC(=O)CC2COc3ccccc3O2)cc1` (configuration not stated) the EC50 [7] was > 195 µM (not active).

With `C=CCc1cccc(/C=N/c2cc(Br)ccc2O)c1O` the IC50 [6] was 14.7 µM (active).
